Source: paper PMC5669110 (Pharmacognosy Magazine, 2017)

Experiments:
Assay in all cases: fluorogenic HDAC8 inhibitor screening kit
Assay type in all cases: biochemical
[1] = molecular target: T1, HDAC8 (histone deacetylase family member 8) (Homo sapiens, UniProt Q9BY41); settings: read-out: % inhibition at 24.2 μM
T1 sequence (Q9BY41 1-377): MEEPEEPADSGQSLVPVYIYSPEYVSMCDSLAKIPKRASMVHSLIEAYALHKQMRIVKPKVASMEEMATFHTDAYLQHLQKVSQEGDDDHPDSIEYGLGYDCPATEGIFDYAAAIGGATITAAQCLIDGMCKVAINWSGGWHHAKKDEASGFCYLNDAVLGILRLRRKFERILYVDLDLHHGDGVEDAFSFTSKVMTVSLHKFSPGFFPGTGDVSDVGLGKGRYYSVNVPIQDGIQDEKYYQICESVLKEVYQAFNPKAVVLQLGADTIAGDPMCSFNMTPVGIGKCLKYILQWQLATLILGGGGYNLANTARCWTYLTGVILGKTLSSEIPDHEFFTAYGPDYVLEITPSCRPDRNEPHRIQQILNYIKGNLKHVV

[2] = molecular target: T1, HDAC8 (histone deacetylase family member 8); settings: read-out: % inhibition at 310.25 μM
[3] = molecular target: T1, HDAC8 (histone deacetylase family member 8); settings: read-out: % inhibition at 60.75 μM

## OCC=Cc1ccccc1 [CALC, Cinnamyl alcohol]
[1]
  inhibition at 24.2 µM: 5.7%

## O=C/C=C/c1ccccc1 [CAL, Cinnamaldehyde]
[2]
  inhibition at 310.25 µM: 18.5%

## O=C(O)/C=C/c1ccccc1 [CA, Cinnamic acid]
[3]
  inhibition at 60.75 µM: 9.3%
